Measurements published in patent US4963570A, “1-(acetylaminophenyl)-2-aminopropanone derivatives and pharmaceutical compositions thereof” (Laboratoire L. Lafon, priority 1983, dated 1990).
“Also recorded” adds a separate entry of the source. Structures can show the parent of a compound that is named as a salt.

Assays:
[1] = system: male mice; test: interaction with proadifen: motility; type: in vivo, mouse
Procedure: (§1) Two series of experiments were carried out. In the first one, male mice (12 per dose, 12 control animals) were administered per I.P. route (i) with proadifen (75 mg/kg) at T-3 h, then (ii) with CRL 41 152 at T-0.5 h. At T=0 the mice were placed in actimeters, where their motility was recoded for 0.5 h. In the second one male mice (12 per dose, 12 control animals) were administered with proadifen and CRL 41 152 as indicated hereinabove, then subcutaneously with apomorphine (16 mg/kg) at T=0 in order to appreciate the potential variation of the hypothermia induced by apomorphine.
(§2) In these two series CRL 41 152, in solution in distilled water, was administered per I.P. route to male mice in a volume of 20 ml/kg.

[2] = system: mice; test: interaction with barbital; type: in vivo, mouse; details: i.p.; dose not stated
Procedure: Half an hour after the administration of CRL 41 224, groups of 10 mice receive an intraperitoneal injection of barbital (220 mg/kg).

[3] = system: mice; test: interaction with oxotremorine; type: in vivo, mouse; details: i.p.; dose not stated
Procedure: CRL 41 224 is administered to groups of 6 mice 0.5 hour before the intraperitoneal injection of 0.5 mg/kg of oxotremorine.

[4] = system: mice; test: toxicity to grouped mice compared with isolated mice; type: in vivo, mouse
[5] = system: male mice; test: influence of catecholamines on hyperactivity in mice; type: in vivo, mouse
Procedure: A further series of assays was carried out on mice according to the teaching of S. L. HANDLEY et al. "Influences of catecholamines on dexamphetamine, induced changes in locomotor activity", Psychopharmacology 58, 283-288 (1978), in order to observe a potential influence of dopamine or moradrenaline on the hyperactivity induced by CRL 41 152.
After a habituation period of 1.5 h to the actimeters, male mice (grouped into batches of 10 animals each and a control batch of 20 animals) were administered (under slight anesthesia with ether) per intraventriculocerebral injection (i.e. I.V.C. route) with (i) either 10 μg of noradrenaline, or 10 μg of dopamine or 10 μl (0.5 μl/second) of saline solution, then (ii) 5 minutes later, with CRL 41 152 (in solution in distilled water) per I.P. route in a volume of 20 ml/kg, immediately before replacing the mice in the actimeters vherein their motility was recorded for 1 hour by measuring the number of crossed rays per period of 5 minutes).
Batches receiving CRL 41 152 per I.P. route with noradreanaline or dopamine per I.V.C. route were compared with (i) the control batch receiving the saline solution per I.V.C. route then distilled water per I.P. route, and (ii) batches receiving only noradrenaline, dopamine (per I.V.C. route) or CRL 41 152 (per I.P. route).

[6] = system: mice; test: interaction with reserpine; type: in vivo, mouse; details: i.p.; dose not stated
Procedure: Four hours after the intraperitoneal injection of 2.5 mg/kg of reserpine, groups of 6 mice receive CRL 41 224.

[7] = system: rats; test: interaction with apomorphine in rats; type: in vivo, rat; details: i.p., dose not stated
Procedure: CRL 41 224 is administered to groups of 6 rats 0.5 hour before the subcutaneous injection of 0.5 mg/kg of apomorphine.

[8] = system: mice; test: action on the behavioral despair; type: in vivo, mouse; details: i.p., dose not stated
Source text: Half an hour after they have received CRL 41 224, groups of 6 mice are placed in a beaker filled with water to a height of 6 cm. The total period of immobility between the 2nd and 6th minutes following immersion is noted.

[9] = system: mice; test: interaction with apomorphine in mice; type: in vivo, mouse; details: i.p.; dose not stated
Procedure: Groups of 6 mice receive CRL 41 224 0.5 hour before the subcutaneous injection of 1 or 16 mg/kg of apomorphine.

[10] = system: CNS; test: overall neuropsychopharmacological (CNS) profile; type: in vivo, mouse; rat; details: i.p., mice and rats; dose not stated; hydrochloride
Procedure: The neuropsychopharmacological study of CRL 41 219 was carried out as indicated above for CRL 41 224.
The neuropsychopharmacological study of CRL 41 220 was carried out in accordance with the procedures given above for CRL 41 224.

[11] = system: mice; test: action on the spontaneous motility (actimeter); type: in vivo, mouse; details: mice, i.p.; dose not stated
Procedure: 0.5 hour after they have received CRL 41 224, the mice (6 per dose, 12 control animals) are placed in an actimeter, where their motility is recorded for 30 minutes.

[12] = system: mice; test: overall behavior and reactivities in mice; type: in vivo, mouse; details: mice, i.p.; dose not stated
Procedure: (§3) Groups of three animals are observed before and then 0.25 hour, 0.50 hour, 1 hour, 2 hours, 3 hours and 24 hours after the administration of CRL 41 224.

[13] = system: rats; test: overall behavior and reactivities in rats; type: in vivo, rat; details: i.p., dose not stated, hydrochloride
Procedure: as §3

[14] = system: mice; test: four plate test, traction and electric shock; type: in vivo, mouse; details: i.p.; dose not stated
Procedure: The test is performed on groups of 10 mice 30 minutes after the administration of CRL 41 224.

[15] = system: man; test: clinical trials; type: in vivo, human; details: man, tablets or gelatine capsules 5 to 75 mg, 1 to 3 per day
[16] = water solubility of the product; type: physicochemical
Procedure: The 39 g of 1-(4-acetylaminophenyl)-2-chloropropanone thus obtained are dissolved in 200 ml of isopropylamine. The resulting reaction medium is heated under reflux for 6 hours. The excess isopropylamine is evaporated off in vacuo. The evaporation residue, which is in the form of a viscous oil, is taken up with 200 ml of anhydrous ethanol and the hydrochloride is recipitated by means of a stream of HCl gas.

[17] = system: rats; test: interaction with amphetamine; type: in vivo, rat; details: rats, i.p.; dose not stated
Procedure: Amphetamine (2 mg/kg) is injected intraperitoneally into groups of 6 rats 30 minutes after the administration of CRL 41 224.

[18] = system: White New Zealand gravid female rabbits; test: teratogenic study; type: in vivo, rabbit
[19] = system: peripheral α-adrenergic stimulation; test: signs of peripheral adrenergic stimulation; type: in vivo, mouse; rat; details: i.p.; dose not stated
Procedure: as §3

[20] = system: mice; test: interaction with barbital; type: in vivo, mouse; details: gastric route
[21] = system: mice; test: motility reduced by hypoxic aggression; type: in vivo, mouse; details: i.p., dose not stated
Procedure: Half an hour after they have received CRL 41 224, the mice (10 per dose, 20 control animals) are subjected to acute hypobaric anoxia [pressure reduction of 600 mm Hg (i.e. about 8×10^4 Pa) in 90 seconds; release of vacuum in 45 seconds] and are then placed in an actimeter, where their motility is recorded for 10 minutes.

[22] = system: mice; test: motility reduced by habituation to the enclosure; type: in vivo, mouse; details: i.p., dose not stated
Procedure: After they have stayed in the actimeters for 18 hours, the mice (6 per dose, 12 control animals) receive CRL 41 224. They are immediately returned to their respective enclosures and, half an hour later, their motility is recorded for 30 minutes.

[23] = system: male mice; test: interaction with proadifen: hypothermia induced by apomorphine; type: in vivo, mouse
Procedure: as §1, §2

[24] = system: rats; test: action on stereotypies in rats (α-methyltyrosine, haloperidol, reserpine)
[25] = proadifen 75 mg/kg i.p. then CRL 41 152

## CC(=O)Nc1ccc(C(=O)C(C)NC(C)C)cc1 (centres unmarked) [CRL 41 152, 1-(4-acetylaminophenyl)-2-isopropylaminopropanone hydrochloride]
[1]; i.p., administered alone
  spontaneous motility: increases the spontaneous motility in mice
[1]; [25]
  effect of proadifen on the induced hypermotility: does not cause a distinct reduction of the hypermotility
[2]
  sleep induced by barbital: antagonism of the sleep induced by barbital
[3]
  hypothermia induced by oxotremorine: antagonism of the hypothermia induced by apomorphine, oxotremorine
  trembling caused by oxotremorine: antagonism of the trembling caused by oxotremorine
[4]
  toxicity to grouped mice compared with isolated mice: do not increase the toxicity to grouped mice
[5]; dopamine 10 μg I.V.C.
  effect of prior dopamine on the motor activity caused: did not modify the motor activity caused by CRL 41 152
[5]; i.p., 8 mg/kg, one-hour recording
  motor activity: distinct statistically significant increase in motor activity
[5]; noradrenaline 10 μg I.V.C.
  effect of prior noradrenaline on the motor stimulant effect: distinct statistically significant decrease in the motor stimulant effect
[6]
  hypothermia induced by reserpine: antagonism of the hypothermia induced by apomorphine, oxotremorine or reserpine
  ptosis induced by reserpine: antagonism of the ptosis induced by reserpine
[7]
  stereotypies induced by apomorphine: potentiation of the stereotypies induced by apomorphine
[8]
  period of immobility or "despair": a reduction in the immobility
[9]
  hypothermia induced by apomorphine: antagonism of the hypothermia induced by apomorphine
[10]
  overall action on the CNS: stimulant effects; also recorded: antidepressant effects
[11]
  spontaneous motility / motor activity: an increase in the spontaneous motility in mice
[12]
  excitation in mice: excitation with hyperreactivity in mice
[13]
  stereotype movements in rats: stereotype movements in rats; also recorded: induces stereotype movements
[14]
  convulsant effects of electric shock: anticonvulsant effects
[15]
  clinical result: depressions, hypersomnia and GELINEAU's disease: excellent drug for treating depressions in man as well as hypersomnia and GELINEAU's disease
[16]
  water solubility: very water-soluble
[17]
  stereotypies induced by amphetamine: potentiation of the stereotypies induced by apomorphine or amphetamine
[18]
  teratogenic effect: does not exhibit any harmful teratogenic effect
[19]
  exophthalmos: absent
  mydriasis: mydriasis
  peripheral adrenergic stimulation, overall: effects which may reflect peripheral adrenergic stimulation
  salivation: absent
[20]
  interaction with barbital, kinetic study: clearly showed the interest of CRL 41 152 as awakening agent
[21]
  motor recovery after hypoxic aggression: an improvement in the motor recovery in mice after acute hypoxia
[22]
  motor activity after habituation to the enclosure: a resumption in the motor activity of mice accustomed to their enclosure
[23]; i.p., 8 and especially 32 mg/kg, apomorphine 16 mg/kg s.c.
  hypothermia induced by apomorphine: antagonism vis-a-vis the hypothermia induced by apomorphine
[23]; i.p., apomorphine 16 mg/kg s.c.
  righting behaviour and stereotypies induced by apomorphine: Neither proadifen, nor CRL 41 152, nor their combination modify the righting behaviour
[23]; [25]
  effect of proadifen on antagonism vis-a-vis the hypothermic effect of apomorphine: does block the antagonism
[24]; haloperidol 0.25 mg/kg i.p. 0.5 h before
  effect of haloperidol on induced stereotypies: almost totally prevents the appearance of stereotypies
[24]; haloperidol 0.5 mg/kg i.p. 0.5 h before
  effect of haloperidol on induced stereotypies: totally inhibits the said stereotypies
[24]; i.p.
  suppression of induced stereotype movements by prior injection of alpha-methyltyrosine: not suppressed
[24]; reserpine 4 mg/kg i.p. 24 hours before
  effect of reserpine on induced stereotypies: only a moderate reduction of the stereotypies
[24]; α-methyltyrosine 128 mg/kg i.p. 2.5 h before 30 mg/kg i.p. CRL 41 152
  inhibition by α-methyltyrosine of the induced stereotypies: 4%
